The source of these data is PubChem BioAssay (NCI).

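Step 1: Grow cells in 96-well plates. Step 2: Expose to compound for 48 hours at 5 concentrations. Step 3: Interpolate endpoints linearly; if unreached, use highest concentration. TGI denotes the concentration required for complete inhibition of growth.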 A value given as a limit tells only on which side of the number the result lay.

What all share (assay): growth of human tumour cells (NCI), 48 h
For experiment [1], the system named is U251 CNS.
Experiment [2] concerns HT29 colon.
Experiment [3] has as its system HL-60(TB) leukemia.
For experiment [4], the system named is SNB-75 CNS.
Experiment [5] concerns NCI/ADR-RES ovarian.
The test system of experiment [6] is NCI-H23 lung.
Experiment [7] concerns UACC-257 melanoma.
The test system of experiment [8] is DU-145 prostate.
For experiment [9], the system named is RPMI-8226 leukemia.
In experiment [10] the test system is HCT-116 colon.

Turning to `Clc1nc(Cl)c(CBr)c(Cl)n1`, the TGI is 14.6 µM in experiment [1]; 32.9 µM in experiment [2]; over 100 µM in experiment [3]; 24.8 µM in experiment [4]; over 43.2 µM in [5]; 31.2 µM in experiment [6]. Moreover, the TGI was 33.9 µM in [7], 30.6 µM in experiment [8], 4.06 µM in experiment [9] and 5.55 µM in experiment [10].
As to `COc1cc2c(cc1OCCCC(=O)Nc1cc(C(=O)NCCCN(C)C)n(C)n1)N=CC1CCCN1C2=O` (stereo not given), the TGI in experiment [1] is over 20.7 µM; in [2], 18.2 µM; in experiment [3], 0.24 µM; in [4] it was 22.3 µM; in experiment [5], over 74.4 µM; in experiment [6], over 26.2 µM. In addition, the TGI was 19.2 µM in [7], over 41.6 µM in experiment [8], 17.6 µM in experiment [9] and over 37.7 µM in experiment [10].
With `CSc1nc2c(=O)n(-c3ccccc3)c(=S)n(-c3ccccc3)c2s1`, the TGI in experiment [1] was over 100 µM; in experiment [2], over 100 µM; in experiment [3], over 100 µM; in [4] it was 91.7 µM; in [5] it was over 100 µM; in [6], over 100 µM. In addition, the TGI in experiment [7], in experiment [8], in [9] and in experiment [10] was over 100 µM in each case.
Turning to `c1ccc2nc(CCC3CCCCN3)ccc2c1` (stereo not given), the TGI in experiment [1], in experiment [2], in experiment [3], in experiment [4], in experiment [5] and in [6] was over 100 µM throughout. The TGI in [7], in experiment [8], in [9] and in [10] was over 100 µM each time.
As for `CC(=O)N1c2ccccc2C(C)C1c1[nH]c2ccccc2c1C` (stereo not given), the TGI is 51.5 µM in experiment [1]; 57.1 µM in experiment [2]; 44.4 µM in experiment [3]; 50.1 µM in experiment [4]; over 100 µM in [5]; over 100 µM in experiment [6]. Also, the TGI in [7] was 49.3 µM; in experiment [8], over 100 µM; in experiment [9] it was 73 µM; in experiment [10], 41.6 µM.
As for `O=C(N/N=C\c1ccccc1)Nc1cccc2ccccc12`, the TGI in experiment [1] was over 100 µM; in experiment [2], 69.9 µM; in experiment [3], over 100 µM; in [4], over 100 µM; in experiment [5], over 100 µM; in experiment [6], over 100 µM. Moreover, the TGI in experiment [7], in experiment [8], in experiment [9] and in experiment [10] was over 100 µM each time.
`N#Cc1nc(CCC(c2nc(C#N)c(N)o2)N2C(=O)c3ccccc3C2=O)oc1N` (stereo not given): the TGI in experiment [1], in [2], in experiment [3], in experiment [4], in [5] and in [6] was over 100 µM throughout. Also, the TGI in [7], in experiment [8], in [9] and in experiment [10] was over 100 µM throughout.
